Measurements from patent publication US20240336608A1, “IL4I1 INHIBITORS AND METHODS OF USE” (Merck Sharp & Dohme LLC, priority 2023, published 2024).

These compounds were tested against T1, recombinant IL4I1 (Homo sapiens, UniProt Q96RQ9) (assay: IL4I1 Enzymatic Assay (Amplex Red/HRP coupled detection of H2O2, fluorescence)). Details: 1 nM recombinant IL4I1; four-hour pre-incubation with compound; 1 mM each Phe, Tyr, Trp; ten-point titration.
T1 construct: purchased R&D Systems 5684-AO-020
T1 sequence (Q96RQ9 22-567): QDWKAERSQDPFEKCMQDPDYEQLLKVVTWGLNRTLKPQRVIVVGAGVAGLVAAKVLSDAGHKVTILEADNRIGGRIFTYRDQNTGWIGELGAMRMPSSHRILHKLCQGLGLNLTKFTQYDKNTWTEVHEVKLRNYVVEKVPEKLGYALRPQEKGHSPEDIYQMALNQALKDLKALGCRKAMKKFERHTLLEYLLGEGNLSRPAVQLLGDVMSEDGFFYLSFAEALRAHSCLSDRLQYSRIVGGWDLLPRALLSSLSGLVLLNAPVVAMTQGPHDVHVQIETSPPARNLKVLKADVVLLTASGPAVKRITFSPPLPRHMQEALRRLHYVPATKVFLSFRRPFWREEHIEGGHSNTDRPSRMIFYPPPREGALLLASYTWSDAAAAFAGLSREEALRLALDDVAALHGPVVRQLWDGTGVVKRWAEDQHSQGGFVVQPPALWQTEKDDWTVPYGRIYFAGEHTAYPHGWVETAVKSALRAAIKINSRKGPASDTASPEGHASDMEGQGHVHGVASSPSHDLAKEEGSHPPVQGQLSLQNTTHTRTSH
Format: biochemical
In short: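 H2O2 output was coupled to resorufin fluorescence (ex 544/em 590) via 0.05 mM Amplex Red and 1 U/mL HRP. Substrate: Phe, Tyr, Trp at 1 mM each; enzyme 1 nM, 4 h compound pre-incubation, 120 min reaction, pH 7.0 Hepes. EC50 by nonlinear four-parameter regression, 1:3 ten-point titration.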
With Cc1cnc(-n2cc(C(=O)NCc3nnc(-c4ccccc4)s3)nn2)c(C)n1 [Example 270, 1-(3,5-dimethylpyrazin-2-yl)-N-((5-phenyl-1,3,4-thiadiazol-2-yl)methyl)-1H-1,2,3-triazole-4-carboxamide] the EC50 was 20 nM. Cc1n[nH]c(C(=O)NCc2nnc(-c3ccccc3)s2)c1C [Example 42, 3,4-dimethyl-N-((5-phenyl-1,3,4-thiadiazol-2-yl)methyl)-1H-pyrazole-5-carboxamide] showed an EC50 of 458 nM. Work on Cc1cc(C(=O)NCc2nnc(-c3ccccc3)s2)oc1C [Example 38, 4,5-dimethyl-N-[(5-phenyl-1,3,4-thiadiazol-2-yl)methyl]furan-2-carboxamide] yielded an EC50 of 890 nM. For Cc1nc(N)ccc1-n1cc(C(=O)NCc2nnc(-c3ccccc3)s2)nn1 [Example 342, 1-(6-amino-2-methylpyridin-3-yl)-N-((5-phenyl-1,3,4-thiadiazol-2-yl)methyl)-1H-1,2,3-triazole-4-carboxamide], the EC50 was 5 nM. Work on CC(NC(=O)c1cn(C)nn1)c1nnc(-c2ccccc2)s1 (single isomer, unassigned) [Example 258, 1-methyl-N-(1-(5-phenyl-1,3,4-thiadiazol-2-yl)ethyl)-1H-1,2,3-triazole-4-carboxamide] yielded an EC50 of 492 nM. O=C(NCc1nnc(-c2ccccc2)s1)c1cn(CCCC(F)(F)F)nn1 [Example 98, N-((5-phenyl-1,3,4-thiadiazol-2-yl)methyl)-1-(4,4,4-trifluorobutyl)-1H-1,2,3-triazole-4-carboxamide] was tested, and the EC50 was 272 nM. Cc1ccc(-n2cc(C(=O)NCc3nnc(C4CCCCC4)s3)nn2)c(C)n1 [Example 324, N-((5-cyclohexyl-1,3,4-thiadiazol-2-yl)methyl)-1-(2,6-dimethylpyridin-3-yl)-1H-1,2,3-triazole-4-carboxamide] was tested, and the EC50 was 274 nM. Cc1n[nH]c(C)c1-n1cc(C(=O)NCc2nnc(-c3ccccc3)s2)nn1 [Example 346, 1-(3,5-dimethyl-1H-pyrazol-4-yl)-N-((5-phenyl-1,3,4-thiadiazol-2-yl)methyl)-1H-1,2,3-triazole-4-carboxamide] showed an EC50 of 108 nM. Cc1ccc(-n2cc(C(=O)NCc3cc(-c4ccccn4)no3)nn2)c(C)n1 [Example 235, 1-(2,6-dimethylpyridin-3-yl)-N-((3-(pyridin-2-yl)isoxazol-5-yl)methyl)-1H-1,2,3-triazole-4-carboxamide] gave an EC50 of 388 nM. Compound CC(NC(=O)c1cn(C2CC2)nn1)c1nnc(-c2ccccc2)s1 (single isomer, unassigned) [Example 245, 1-cyclopropyl-N-(1-(5-phenyl-1,3,4-thiadiazol-2-yl)ethyl)-1H-1,2,3-triazole-4-carboxamide] has an EC50 of 23 nM. Work on O=C(NCc1nnc(-c2ccccc2)s1)c1cn(C2CC2(F)F)nn1 (single isomer, unassigned) [Example 130, 1-(2,2-difluorocyclopropyl)-N-((5-phenyl-1,3,4-thiadiazol-2-yl)methyl)-1H-1,2,3-triazole-4-carboxamide] yielded an EC50 of 5 nM. Compound O=C(NCc1nnc(-c2ccccc2)s1)c1cn(CCCF)nn1 [Example 93, 1-(3-fluoropropyl)-N-((5-phenyl-1,3,4-thiadiazol-2-yl)methyl)-1H-1,2,3-triazole-4-carboxamide] has an EC50 of 8 nM. In the case of CC(C)n1cc(C(=O)NCc2nnc(-c3ccccc3)s2)nn1 [Example 304, 1-isopropyl-N-((5-phenyl-1,3,4-thiadiazol-2-yl)methyl)-1H-1,2,3-triazole-4-carboxamide], the EC50 is reported as 4 nM. For O=C(NCc1nnc(-c2ccccc2)s1)c1cn(CC2(F)CC2)nn1 [Example 150, 1-((1-fluorocyclopropyl)methyl)-N-((5-phenyl-1,3,4-thiadiazol-2-yl)methyl)-1H-1,2,3-triazole-4-carboxamide], the EC50 was 4 nM. CCC(CC)Cn1cc(C(=O)NCc2nnc(-c3ccccc3)s2)nn1 [Example 82, 1-(2-ethylbutyl)-N-((5-phenyl-1,3,4-thiadiazol-2-yl)methyl)-1H-1,2,3-triazole-4-carboxamide] was tested, and the EC50 was 282 nM. With CC[C@H](c1ccc(F)cc1)n1cc(C(=O)NCc2nnc(-c3ccccc3)s2)nn1 [Example 256, (R)-1-(1-(4-fluorophenyl)propyl)-N-((5-phenyl-1,3,4-thiadiazol-2-yl)methyl)-1H-1,2,3-triazole-4-carboxamide] the EC50 was 3 nM. With O=C(NCc1nnc(-c2ccccc2)s1)c1cn(CC(O)C(F)F)nn1 (single isomer, unassigned) [Example 139, 1-(3,3-difluoro-2-hydroxypropyl)-N-((5-phenyl-1,3,4-thiadiazol-2-yl)methyl)-1H-1,2,3-triazole-4-carboxamide] the EC50 was 123 nM. For N#CC1(Cn2cc(C(=O)NCc3nnc(-c4ccccc4)s3)nn2)CC1 [Example 87, 1-((1-cyanocyclopropyl)methyl)-N-((5-phenyl-1,3,4-thiadiazol-2-yl)methyl)-1H-1,2,3-triazole-4-carboxamide], the EC50 was 18 nM. Work on CC(C)(O)c1cc(C(=O)NCc2cc(-c3ccccc3)no2)on1 [Example 247, 3-(2-hydroxypropan-2-yl)-N-((3-phenylisoxazol-5-yl)methyl)isoxazole-5-carboxamide] yielded an EC50 of 916 nM. With Cc1cc(C(=O)NCc2nnc(-c3ccccc3)s2)c(C)o1 [Example 36, 2,5-dimethyl-N-[(5-phenyl-1,3,4-thiadiazol-2-yl)methyl]furan-3-carboxamide] the EC50 was 487 nM. In the case of CCc1[nH]nc(C(=O)NCc2nnc(-c3ccccc3)s2)c1C [Example 47, 5-ethyl-4-methyl-N-((5-phenyl-1,3,4-thiadiazol-2-yl)methyl)-1H-pyrazole-3-carboxamide], the EC50 is reported as 155 nM. For Cc1ccc(-n2cc(C(=O)NCc3nnc(-c4ccc(O)cc4)s3)nn2)c(C)n1 [Example 115, 1-(2,6-dimethylpyridin-3-yl)-N-((5-(4-hydroxyphenyl)-1,3,4-thiadiazol-2-yl)methyl)-1H-1,2,3-triazole-4-carboxamide], the EC50 was 36 nM. Cc1csc(C(=O)NCc2nnc(-c3ccccc3)s2)c1Cl [Example 37, 3-chloro-4-methyl-N-[(5-phenyl-1,3,4-thiadiazol-2-yl)methyl]thiophene-2-carboxamide] showed an EC50 of 12 nM. With O=C(NCc1nnc(-c2ccccc2)s1)c1cn(C2(C(F)(F)F)CC2)nn1 [Example 153, N-((5-phenyl-1,3,4-thiadiazol-2-yl)methyl)-1-(1-(trifluoromethyl)cyclopropyl)-1H-1,2,3-triazole-4-carboxamide] the EC50 was 593 nM. For CC(NC(=O)c1cn(C)nn1)c1nnc(-c2ccccc2)s1 (single isomer, unassigned) [Example 259, 1-methyl-N-(1-(5-phenyl-1,3,4-thiadiazol-2-yl)ethyl)-1H-1,2,3-triazole-4-carboxamide], the EC50 was 26 nM. Work on Cc1cc(C(=O)NCc2nnc(-c3ccccc3)s2)no1 [Example 23, 5-methyl-N-[(5-phenyl-1,3,4-thiadiazol-2-yl)methyl]isoxazole-3-carboxamide] yielded an EC50 of 207 nM. Cc1ccc(-n2cc(C(=O)NCc3ccc(-c4cccs4)nn3)nn2)c(C)n1 [Example 121, 1-(2,6-dimethylpyridin-3-yl)-N-((6-(thiophen-2-yl)pyridazin-3-yl)methyl)-1H-1,2,3-triazole-4-carboxamide] was tested, and the EC50 was 24 nM. O=C(NCc1nnc(-c2ccccc2)s1)c1cn(C[C@@H](F)CO)nn1 [Example 165, (R)-1-(2-fluoro-3-hydroxypropyl)-N-((5-phenyl-1,3,4-thiadiazol-2-yl)methyl)-1H-1,2,3-triazole-4-carboxamide] showed an EC50 of 7 nM.
